Results: patent publication US12485119B2, “Methods of treating pulmonary arterial hypertension” (ACTELION PHARMACEUTICALS LTD, priority 2019, dated 2025)

Columns and labels:
[1] = test system: newly diagnosed, treatment-naïve subjects with PAH
Excerpt: The following safety endpoints will be used: • Treatment-emergent AEs. • AEs leading to premature discontinuation of any of the 3 study treatments. • Treatment-emergent SAEs. • Treatment-emergent deaths. • Treatment-emergent marked laboratory abnormalities. • Change from baseline in laboratory variables. • Change from baseline in vital signs.
The safety endpoints will be analyzed for the following time periods: • From Day 1 until EOMOP. • From Day 1 until start of double-blind treatment (selexipag/placebo). • From start until discontinuation of macitentan study treatment (or until EOMOP, whichever is first)+30 days safety follow up. • From start until discontinuation of tadalafil study treatment (or until EOMOP, whichever is first)+30 days safety follow up. • From start until discontinuation of double-blind treatment (or until EOMOP, whichever is first)+30 days safety follow up. • From EOMOP until EOT plus 30 days safety follow-up. • The 30 days safety follow-up.

[2] = test system: newly diagnosed, treatment-naïve subjects with PAH; assay: Exposure to study treatments, individual maintenance dose and maximum tolerated dose; assay type: in vivo, human; settings: up to EOMOP; Safety Set
Description: The starting dose of double-blind selexipag or placebo on Day 15±3 is 200 μg twice daily (in the morning and in the evening). The dose is up-titrated in increments of 200 μg twice daily, usually at weekly intervals (see Table 1), until either a maximum dose of 1600 μg twice daily is reached or adverse pharmacological effects that cannot be tolerated or medically managed are experienced, whichever is first. In the event of adverse effects typical of prostanoid therapy, it is recommended not to discontinue double-blind treatment because these effects are usually transient or manageable with symptomatic treatment. If a dose that cannot be tolerated is reached, the dose should be reduced to the previous dose level.

[3] = risk TEAEs (EU Uptravi RMP) up to EOMOP

CC(C)N(CCCCOCC(=O)NS(C)(=O)=O)c1cnc(-c2ccccc2)c(-c2ccccc2)n1 [Selexipag, 2-{4-[(5,6-diphenylpyrazin-2-yl)(propan-2-yl)amino]butoxy}-N-(methanesulfonyl)acetamide]
Tolerability as part of the initial triple therapy regimen ([1]; in vivo): well-tolerated
Bleeding events: PT Blood loss anaemia, % [1, 3]: (0.8) %
Bleeding events: PT Conjunctival haemorrhage, % [1, 3]: (0.8) %
Bleeding events: PT Contusion, % [1, 3]: (0.8) %
Bleeding events: PT Epistaxis, % [1, 3]: (9.2) %
Bleeding events: PT Gastrointestinal haemorrhage, % [1, 3]: (3.4) %
Bleeding events: PT Gastrointestinal polyp haemorrhage, % [1, 3]: (0.8) %
Bleeding events: PT Gingival bleeding, % [1, 3]: (0.8) %
Bleeding events: PT Haematochezia, % [1, 3]: (0.8) %
Bleeding events: PT Haematoma, % [1, 3]: (1.7) %
Bleeding events: PT Haemoptysis, % [1, 3]: (0.8) %
Bleeding events: PT Haemorrhoidal haemorrhage, % [1, 3]: (0.8) %
Bleeding events: PT Hereditary haemorrhagic telangiectasia, % [1, 3]: (0.8) %
Bleeding events: PT Melaena, % [1, 3]: (0.8) %
Bleeding events: PT Menorrhagia, % [1, 3]: (0.8) %
Bleeding events: PT Metrorrhagia, % [1, 3]: (1.7) %
Bleeding events: PT Upper gastrointestinal haemorrhage, % [1, 3]: (1.7) %
Bleeding events: PT Vaginal haemorrhage, % [1, 3]: (0.8) %
Bleeding events: PT Vascular rupture, % [1, 3]: (0.8) %
GI intussusception risk: PT Small intestinal obstruction, % [1, 3]: (0.8) %
MACE: PT Transient ischaemic attack, % [1, 3]: (0.8) %
Medication errors: PT Accidental overdose, % [1, 3]: (0.8) %
Ophthalmological risk: PT Blindness, % [1, 3]: (0.8) %
Ophthalmological risk: PT Photopsia, % [1, 3]: (0.8) %
Ophthalmological risk: PT Retinal vasculitis, % [1, 3]: (0.8) %
Ophthalmological risk: PT Vision blurred, % [1, 3]: (1.7) %
Ophthalmological risk: PT Vitreous floaters, % [1, 3]: (0.8) %
PVOD/pulmonary oedema risk: PT Pulmonary oedema, % [1, 3]: (0.8) %
PVOD/pulmonary oedema risk: PT Pulmonary veno-occlusive disease, % [1, 3]: (0.8) %
Renal risk: PT Acute kidney injury, % [1, 3]: (3.4) %
Renal risk: PT Blood creatinine increased, % [1, 3]: (2.5) %
Renal risk: PT Glomerular filtration rate decreased, % [1, 3]: (0.8) %
Renal risk: PT Prerenal failure, % [1, 3]: (0.8) %
Renal risk: PT Renal failure, % [1, 3]: (0.8) %
Renal risk: PT Renal impairment, % [1, 3]: (0.8) %
Risk Anaemia (all PTs), % [1, 3]: (25.2) %
Risk Anaemia: PT Anaemia, % [1, 3]: (12.6) %
Risk Anaemia: PT Blood loss anaemia, % [1, 3]: (0.8) %
Risk Anaemia: PT Haematocrit decreased, % [1, 3]: (0.8) %
Risk Anaemia: PT Haemoglobin decreased, % [1, 3]: (6.7) %
Risk Anaemia: PT Iron deficiency anaemia, % [1, 3]: (6.7) %
Risk Anaemia: PT Microcytic anaemia, % [1, 3]: (1.7) %
Risk Anaemia: PT Red blood cell count decreased, % [1, 3]: (0.8) %
Risk Bleeding events (all PTs), % [1, 3]: (21.8) %
Risk Gastrointestinal disturbances denoting intestinal intussusception (manifested as ileus or obstruction), % [1, 3]: (0.8) %
Risk Hypotension (all PTs), % [1, 3]: (8.4) %
Risk Hypotension: PT Hypotension, % [1, 3]: (7.6) %
Risk Hypotension: PT Orthostatic hypotension, % [1, 3]: (0.8) %
Risk Light-dependent non-melanoma skin malignancies (all PTs), % [1, 3]: (0.8) %
Risk Major adverse cardiovascular events (MACE) (all PTs), % [1, 3]: (0.8) %
Risk Medication errors (all PTs), % [1, 3]: (0.8) %
Risk Ophthalmological effects associated to retinal vascular system (all PTs), % [1, 3]: (4.2) %
Risk Pulmonary venoocclusive disease associated with pulmonary oedema (all PTs), % [1, 3]: (1.7) %
Risk Renal function impairment/acute renal failure (all PTs), % [1, 3]: (8.4) %
Skin malignancies risk: PT Basal cell carcinoma, % [1, 3]: (0.8) %
Subjects with At Least One Identified or Potential Risk AE, % [1, 3]: (49.6) %
Maximum tolerated dose of double-blind treatment (b.i.d), Median [2]: 1000.0 µg
